Key:
[1] = tested on: human embryonic stem cell line H1; experiment: Detachment of H1 cells from polycarbonate Membrane No. 9 after removal of H-1152; assay type: cell-based; conditions: 3 μM for 24 hr, then 24 hours without
Procedure: Cells of the human embryonic stem cell line H1 were seeded on to a planar substrate comprising polycarbonate (Membrane No. 9) at a density of 100,000 cells/cm^2, in MEF conditioned medium containing 20 ng/ml bFGF and 3 μM of the Rho kinase inhibitor H-1152. The cells were cultured for 24 hr. After this time, the culture medium was replaced with MEF conditioned medium containing 20 ng/ml bFGF, lacking H-1152. After 24 hours, the cells on the membrane were fixed with 4% paraformaldehyde, rinsed with PBS, air dried, stained with crystal violet dye. The number of cells was determined via light microscopy. Wells containing H-1152 were included as a control.

[2] = tested on: human embryonic stem cell line H1; experiment: Effect of porosity and Rho kinase inhibition on attachment of H1 cells (Membranes No. 10 and 11); assay type: cell-based
Procedure: Cells of the human embryonic stem cell line H1 at passage 42 were seeded onto the following planar substrates: Membrane No. 10 (pore size 0.4 μm); and Membrane No. 11 (pore size 3 μm). Cells were seeded at a density of 100,000 cells/cm^2, in MEF conditioned medium containing 20 ng/ml bFGF. The effect of Rho kinase inhibition on the attachment of the cells to the planar substrates was also examined. The cell culture medium was supplemented with 0.3 μM H-1152. After 24 hours, the culture medium was replaced with MEF conditioned medium containing 20 ng/ml bFGF, lacking H-1152. After another 24 hours culture, the cells on the membrane were fixed with 4% paraformaldehyde, rinsed with PBS, air dried, stained with crystal violet dye. Wells containing 1 μM H-1152 were included as a control. The number of cells was determined via light microscopy. Wells containing vehicle were included as a control.

[3] = tested on: human embryonic stem cell line H1; experiment: Attachment of human embryonic stem cell line H1 to planar substrates of Table 1, with or without H-1152; assay type: cell-based
Procedure: Prior to testing, cells of the human embryonic stem cell line H1 cells were expanded on tissue culture plates coated with a 1:30 dilution of growth factor-reduced MATRIGEL®. Cells were seeded onto 100 mm culture dishes in 10 ml MEF conditioned media supplemented with 20 ng/ml bFGF (MEF-CM/bFGF). The cells were cultured at 37° C. in a humidified with a 5% CO2 atmosphere. The media was changed everyday with fresh MEF-CM/bFGF. Once the cells reached approximately 80% confluence, the cells were passaged by treatment with 1 mg/ml LIBERASE for 5 minutes at 37° C. The digestion was stopped by removing enzyme from the dish and rinsing the cells with MEF-CM/bFGF. The cells were collected by manual scraping in 10 ml MEF-CM/bFGF and transferred to a 50-ml conical tube. The cells were centrifuged at 200×g (1000 rpm) on a tabletop centrifuge to form a pellet. […]
Cells of the human embryonic stem cell line H1 were seeded onto the various planar substrates set forth in Table 1, at a density of 100,000 cells/cm^2. […] The effect of the Rho kinase inhibitor H-1152 on the attachment of the cells to the planar substrates was determined 3 μM H-1152 was added to the medium used to seed the cells. […] The cells were then stained with 1% hematoxylin, and the number of cells was determined via light microscopy. […]

[4] = tested on: human embryonic stem cell line H1; experiment: Attachment of H1 cells to polycarbonate Membrane No. 7 with H-1152 concentration series; assay type: cell-based; conditions: 24 hours
Procedure: In a separate experiment, the effect of the Rho kinase inhibitor H-1152 on the attachment of cells of the human embryonic stem cell line H1 to Membrane No. 7 was determined. The cells were seeded on a planar substrate comprising polycarbonate membranes (membrane No. 7) at a density of 150,000 cells/cm^2 in MEF-CM containing 20 ng/ml bFGF. The Rho Kinase inhibitor H-1152 was added to the culture medium at concentration of 0, 0.03, 0.1, 0.3, 1, and 3 μM. After 24 hours, the cells on the membrane were fixed with 4% paraformaldehyde, rinsed with PBS, air dried, stained with crystal violet dye. The number of cells was determined via light microscopy. Wells containing vehicle were included as a control.

[5] = tested on: dissociated human embryonic stem cells; conditions: serum-free suspension culture; cited from earlier work
[6] = tested on: human embryonic stem cell line H9; experiment: Attachment of H9 cells to mixed cellulose ester membrane No. 1 with Y26732; assay type: cell-based; conditions: for Effect of Y26732 on attachment of H9 cells: 24 hours
Procedure: Cells of the human embryonic stem cell line H9 were cultured on MATRIGEL® coated dishes prior to experimental manipulation. Cells were seeded a mixed cellulose ester membrane (membrane No. 1) at a density of 150,000 cells/cm^2 in MEF conditioned medium. The planar substrate lacked an adlayer and a fibroblast feeder cell layer. The effect of the Rho Kinase inhibitor treatment on the attachment to the planar substrate was examined Cells were treated with 0, 10, or 20 μM Y26732. After 24 hours, the cells were fixed with 4% paraformaldehyde, rinsed with PBS, air dried, stained with crystal violet dye. The number of cells was determined via light microscopy. Wells containing vehicle were included as a control.

[7] = tested on: human embryonic stem cells; conditions: cited from earlier work
[8] = tested on: human embryonic stem cell line H9; experiment: Attachment of H9 cells to polycarbonate Membrane No. 7 with Y26732; assay type: cell-based; conditions: 24 hours
Procedure: Cells of the human embryonic stem cell line H9 were seeded onto a planar substrate comprising polycarbonate (Membrane No. 7) at a density of 150,000 cells/cm^2 in MEF conditioned medium. The effect of Rho kinase inhibitor treatment on attachment was examined: The Rho Kinase inhibitor Y26732 was added to the culture medium at concentration of 0, 10, or 20 μM. After 24 hours, the cells on the membrane were fixed with 4% paraformaldehyde at room temperature, rinsed with PBS, air dried, stained with crystal violet dye. The number of cells was determined via light microscopy. Wells containing vehicle were included as a control.

| SMILES | Effect of removal of H-1152 from the culture medium [1] | Need for H-1152 to maintain attachment of H1 cells ([2]; 1 μM, Membranes No. 10 and 11) | Effect of removal of H-1152 from the culture medium ([2]; Membrane No. 10 and Membrane No. 11) | Effect of H-1152 on attachment of H1 cells ([3]; 3 μM H-1152, membranes No. 2, 4 and 5) | Effect of removal of H-1152 from the culture medium on attached H1 cells ([3]; membranes No. 7 and No. 12) | Attachment of H1 cells with H-1152 ([4]; 0.03 μM) | Attachment of H1 cells with H-1152 ([4]; 0.1 μM) | Attachment of H1 cells with H-1152 ([4]; 0.3 μM) | Attachment of H1 cells with H-1152 ([4]; 1 μM) | Attachment of H1 cells with H-1152 ([4]; 3 μM) | apoptosis of dissociated human ES cells [5] | Effect of Y26732 on attachment of H9 cells ([6]; 10 μM) | Effect of Y26732 on attachment of H9 cells ([6]; 20 μM) | Effect of removal of Y26732 from the culture medium ([6]; removal for 24 hr) | attachment of human embryonic stem cells on surface modified plates [7] | Effect of Y26732 on attachment of H9 cells ([8]; 10 μM) | Effect of Y26732 on attachment of H9 cells ([8]; 20 μM) |
| --- | --- | --- | --- | --- | --- | --- | --- | --- | --- | --- | --- | --- | --- | --- | --- | --- | --- |
| Cc1cncc2cccc(S(=O)(=O)N3CCCNC[C@@H]3C)c12 [Membrane H-1152] | resulted in the detachment of cells | required to maintain the attachment | resulted in detachment of cells | enhanced | led to detachment of H1 cells | do not attach | do not attach | attachment was observed | attachment was observed | attachment was observed | – | – | – | – | – | – | – |
| C[C@@H](N)[C@H]1CC[C@H](C(=O)Nc2ccncc2)CC1 [Membrane Y26732] | – | – | – | – | – | – | – | – | – | – | protected from apoptosis | increased the attachment | increased the attachment | did not result in the detachment | enhance the attachment | resulted in the attachment | resulted in the attachment |

Reference: patent US9969973B2, “Methods and compositions for cell attachment and cultivation on planar substrates” (Janssen Biotech, Inc., priority 2008, dated 2018)
